Source: patent US5851782A, “Inhibitors of ceramidase” (Duke University, priority 1996, dated 1998)
One block for each molecule: values may come before it.

Experiments:
[1] = test system: ceramide-activated protein phosphatase (CAPP); assay: CAPP serine/threonine phosphatase activity in vitro; format: biochemical; details: myelin basic protein phosphorylated by protein kinase A as substrate
alkaline ceramidase = assay: Alkaline ceramidase activity in vitro at pH 9.0; format: biochemical, human; details: final concentrations up to 50 μM
Procedure: Measurement of ceramidase activity in HL-60 cells. Ceramidase activity in HL-60 cells was measured by a modification of the method of Gatt and Yavin (Methods Enzymol. 14:139 (1969)). Cells were disrupted by sonication in 0.25M sucrose, 1 mM EDTA, and centrifuged at 10,000×g for 10 min after which the supernatant was centrifuged at 100,000×g for 60 min. Ten μl of 1 mM ceramide substrate ([^3 H]C16 -ceramide) was mixed with 100 μl of Triton X-100 (0.1%) in chloroform/methanol, 2:1, and 100 μl of 0.2% sodium cholate in chloroform/methanol, 2:1, after which the solvent was evaporated under N2 at 70° C. To this mixture, 30 μl of water was added and the tubes were heated for 5 s in an 80° C. water bath and then put on ice. Fifty μl of the appropriate buffer depending on desired pH was added followed by 20 μl of 50 mM MgCl2 and 100 μl of cell extract. In experiments using inhibitors, the desired inhibitor was added in ethanol either with the substrate or directly to the final solution. The reaction mixture was incubated for 1 h at 37° C. The ^3 H-fatty acid products of ceramidase were separated by the addition of 2 ml of Dole's solution (isopropyl alcohol, heptane, NaOH), 1.2 ml of heptane, and 1 ml of water. After vortexing and centrifugation, the upper phase was discarded and the lower phase was washed twice with heptane and the upper phase discarded each time. Finally, 1 ml of 1N H2 SO4, and 2 ml of heptane were added, and after vortexing and centrifugation the upper phase was transferred for counting by liquid scintillation.
In order to evaluate the interactions of D- and L-e-MAPP with ceramidase, in vitro studies we conducted using cytosolic and membrane fractions from HL-60 cells. Initially, ceramidase activity was examined for pH dependence using tritium-labeled C16 -ceramide as substrate. […] The alkaline ceramidase activity was very similar to that described in fibroblasts and cerebellar tissue (Sugita et al, Biochim. Biophys. Acta 398:125 (1975), Wertz and Downing, FEBS Lett. 268:110 (1990)). In initial studies, the ability of this ceramidase to utilize D-e- and L-e-MAPP as substrates was investigated. […] These studies corroborate the cellular metabolism studies showing that L-e-MAPP is a substrate for ceramidase in vitro and in cells.
Next, the ability of D- and L-e-MAPP to interfere with hydrolysis of C16 -ceramide by ceramidase at pH 4.5 and 9.0 was evaluated. Inhibition of ceramidase activity by D-e-MAPP was compared to that by N-oleoylethanolamine, a putative inhibitor of acid ceramidase (Sugita et al, Biochim. Biophys. Acta 398:125 (1975)). […] The effects of N-oleoylethanolamine are consistent with the previously reported Ki of 700 μM (Sugita et al, Biochim. Biophys. Acta 398:125 (1975)). […] In contrast, D-e-MAPP was a relatively poor inhibitor of acid ceramidase with less than 10% inhibition of acid ceramidase at 50 μM (FIG. 6C).

acid ceramidase [2] = molecular target: T1, acid ceramidase (Homo sapiens, UniProt Q13510); details: Sugita et al, Biochim. Biophys. Acta 398:125 (1975); read-out: previously reported Ki; cited from earlier work
T1 sequence (Q13510 22-395): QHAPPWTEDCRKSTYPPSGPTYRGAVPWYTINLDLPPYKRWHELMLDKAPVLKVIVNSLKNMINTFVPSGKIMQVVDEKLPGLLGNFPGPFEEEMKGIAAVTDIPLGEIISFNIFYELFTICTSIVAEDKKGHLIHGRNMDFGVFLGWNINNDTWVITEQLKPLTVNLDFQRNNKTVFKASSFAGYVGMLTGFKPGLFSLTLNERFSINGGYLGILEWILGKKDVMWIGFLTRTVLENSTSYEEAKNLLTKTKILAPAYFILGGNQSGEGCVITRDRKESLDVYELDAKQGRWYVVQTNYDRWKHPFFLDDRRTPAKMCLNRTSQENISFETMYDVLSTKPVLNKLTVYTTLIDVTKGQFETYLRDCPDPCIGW

acid ceramidase [3] = molecular target: T1, acid ceramidase; assay: Acid ceramidase activity in vitro at pH 4.5; format: biochemical; parameters: Ceramidase activity was determined from total homogenates of HL-60 cells; endogenous in cells; host or cells: HL-60 cells; details: pH 4.5, 50 μM C16-ceramide substrate
Procedure: Measurement of ceramidase activity in HL-60 cells. Ceramidase activity in HL-60 cells was measured by a modification of the method of Gatt and Yavin (Methods Enzymol. 14:139 (1969)). Cells were disrupted by sonication in 0.25M sucrose, 1 mM EDTA, and centrifuged at 10,000×g for 10 min after which the supernatant was centrifuged at 100,000×g for 60 min. Ten μl of 1 mM ceramide substrate ([^3 H]C16 -ceramide) was mixed with 100 μl of Triton X-100 (0.1%) in chloroform/methanol, 2:1, and 100 μl of 0.2% sodium cholate in chloroform/methanol, 2:1, after which the solvent was evaporated under N2 at 70° C. To this mixture, 30 μl of water was added and the tubes were heated for 5 s in an 80° C. water bath and then put on ice. Fifty μl of the appropriate buffer depending on desired pH was added followed by 20 μl of 50 mM MgCl2 and 100 μl of cell extract. In experiments using inhibitors, the desired inhibitor was added in ethanol either with the substrate or directly to the final solution. The reaction mixture was incubated for 1 h at 37° C. The ^3 H-fatty acid products of ceramidase were separated by the addition of 2 ml of Dole's solution (isopropyl alcohol, heptane, NaOH), 1.2 ml of heptane, and 1 ml of water. After vortexing and centrifugation, the upper phase was discarded and the lower phase was washed twice with heptane and the upper phase discarded each time. […]

[4] = molecular target: T2, Glucosylceramide synthase (Homo sapiens, UniProt Q16739); assay: Glucocerebroside (glucosylceramide) synthase assay in vitro; format: biochemical; details: 20 μM
T2 sequence (Q16739 1-394): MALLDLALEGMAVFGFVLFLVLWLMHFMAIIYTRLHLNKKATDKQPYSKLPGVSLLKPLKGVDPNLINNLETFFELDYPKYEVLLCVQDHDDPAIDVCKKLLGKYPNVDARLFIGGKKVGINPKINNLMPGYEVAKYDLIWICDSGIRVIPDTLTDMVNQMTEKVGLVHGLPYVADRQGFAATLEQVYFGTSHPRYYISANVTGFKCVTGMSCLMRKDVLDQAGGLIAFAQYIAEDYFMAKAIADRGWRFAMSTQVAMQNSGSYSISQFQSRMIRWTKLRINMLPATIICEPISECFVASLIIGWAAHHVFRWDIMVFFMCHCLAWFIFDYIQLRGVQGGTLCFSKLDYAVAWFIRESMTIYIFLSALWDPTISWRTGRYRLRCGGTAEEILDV
Procedure: Glucocerebrosidase and glucocerebroside synthase assays. In vitro assays for gluccerebrosidase and for cerebroside synthase were performed as described (Abe et al, J. Biochem. (Tokyo) 11:191 (1992)).
In addition to ceramidase, inhibition of cerebroside synthase and sphingomyelin synthase or stimulation of sphingomyelinase or cerebrosidase could result in elevations in endogenous ceramide levels. Therefore, the effects of D- and L-e-MAPP were examined on these enzyme activities in vitro and in cells.

[5] = test system: HL-60 human myelocytic leukemia cells; assay: HL-60 cell proliferation (cell counting); format: cell-based; details: HL-60, 3 μM D-MAPP plus fumonisin B1, 48 h
Procedure: Proliferation and cell cycle studies. HL-60 human myelocytic leukemia cells (obtained from the American Type Culture Collection) were grown in RPMI 1640 medium containing 10 fetal calf serum at 37° C. in 5% CO2 incubator. For proliferation and cell cycle studies, cells were resuspended at a density of 2×10^5 cells/ml in serum-free media containing insulin (5 mg/liter) and transferrin (5 mg/liter) and sodium selenite (5 μg/liter) for 2-4 h. Cells were then treated with the indicated compounds. Ethanol concentration was always maintained at less than 0.1%. Cell proliferation was determined by counting cells using a hemacytometer, cell viability was evaluated by trypan blue dye exclusion, and cell cycle analysis was determined by propidium iodide flow cytometry as described (Chao et al, J. Biol. Chem. 267:23459 (1992)).
In structure-function analysis of ceramide-mediated growth suppression using amides of phenylaminoalcohols, D- and L-erythro-MAPP were employed. In these studies, HL-60 cells were treated with 5 μM of either D-e-MAPP or L-e-MAPP, and growth was determined at the indicated time points (FIG. 2A).
Studies were conducted examining the uptake and metabolism of D- and L-MAPP. In the first set of studies, the effect of duration of exposure of HL-60 cells to D-e-MAPP on the bioactivity of the molecule was determined. D-e-MAPP added to cells could be washed off by repeated sedimentation and washing of cells. Thus, after five cycles of washing, less than 10% of D-MAPP remained associated with the cell pellet-compared to unwashed cells (FIG. 5A).

SMILES: CCCCCCCCCCCCC/C=C/[C@@H](O)[C@H](CO)NC(=O)CCCCC [C6 -ceramide, reference compound]
activation of CAPP in vitro [1]: concentration-dependent stimulation of activity

inhibition of alkaline ceramidase in vitro (alkaline ceramidase): less than 10% | IC50 (acid ceramidase [3]): ~500 µM
SMILES: CCCCCCCC/C=C\CCCCCCCC(=O)NCCO [N-oleoylethanolamine, reference compound]
Ki (acid ceramidase [2]): 700 µM

SMILES: CCCCCCCCCCCCCC(=O)NC(CN1CCOCC1)C(O)c1ccccc1 (stereo not shown) [PMMP, reference compound]
Glucosylceramide synthase activity ([4]; Control 1.009 ± 0.0424): 0.208 ± 0.008 nmol/h/mg protein | inhibition of cerebroside synthase activity ([4]; Table I): significant inhibition

SMILES: CCCCC(C)C(OC(=O)CC(CC(=O)O)C(=O)O)C(CC(C)CC(O)CCCCC(O)CC(O)C(C)N)OC(=O)CC(CC(=O)O)C(=O)O (stereo not shown) [fumonisin B1, reference compound]
effect on growth suppression by D-e-MAPP [5]: did not inhibit the effects of D-e-MAPP on growth
